Values joined by “and” are separate entries in the source; they are usually repeats but may differ in a detail not shown here. Equal values may be shown once. Toxic doses and inconclusive results are not listed.

The test system of the assay is P388 leukemia ip, CD2F1 mice, survival T/C. The experiment in a line: NCI In Vivo Anticancer Drug Screen. Data for tumor model P388 Leukemia (intraperitoneal) in CD2F1 (CDF1) mice. The note with it: endpoint: median survival time, higher = longer survival. The essentials: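 Mice carrying the transplanted tumor received test compound or vehicle. Survival was recorded in each group, and the value is the treated-group measurement divided by that of the vehicle-treated control group.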

Where [1] appears, read: dose: 12.5 mg/kg/injection, schedule: Q01DX009 (ip), vehicle: saline with Tween-80.
[2] abbreviates: dose: 25.0 mg/kg/injection, schedule: Q01DX009 (ip), vehicle: saline with Tween-80.
The mark [3] stands for this setting: dose: 50.0 mg/kg/injection, schedule: Q01DX009 (ip), vehicle: saline with Tween-80.
Where [4] appears, read: dose: 100.0 mg/kg/injection, schedule: Q01DX009 (ip), vehicle: saline with Tween-80.
Setting [5] is: dose: 50.0 mg/kg/injection, schedule: Q01DX005 (ip), vehicle: Klucel (hydroxypropylcellulose) (HPC).
Setting [6] is: dose: 100.0 mg/kg/injection, schedule: Q01DX005 (ip), vehicle: Klucel (hydroxypropylcellulose) (HPC).
Setting [7] is: dose: 60.0 mg/kg/injection, schedule: Q01DX005 (ip), vehicle: saline with Tween-80.
Where [8] appears, read: dose: 120.0 mg/kg/injection, schedule: Q01DX005 (ip), vehicle: saline with Tween-80.
Where [9] appears, read: dose: 240.0 mg/kg/injection, schedule: Q01DX005 (ip), vehicle: saline with Tween-80.

`COC1=CC(=O)C(Cc2ccc(OC)cc2)=CC1=O`: the T/C (dose: 2.5 mg/kg/injection, schedule: Q01DX009 (ip), vehicle: saline with Tween-80) was 100 % of control; the T/C (dose: 5.0 mg/kg/injection, schedule: Q01DX009 (ip), vehicle: saline with Tween-80) was 100 % of control; the T/C (dose: 10.0 mg/kg/injection, schedule: Q01DX009 (ip), vehicle: saline with Tween-80) is 100 % of control.

Consider `O=NN1CCNC1=O`, for which the T/C (dose: 1.5 mg/kg/injection, schedule: Q04DX003 (ip), vehicle: saline) was 113 % of control; the T/C (dose: 6.25 mg/kg/injection, schedule: Q01DX009 (ip), vehicle: saline) is 168 % of control; the T/C (dose: 12.5 mg/kg/injection, schedule: Q01DX009 (ip), vehicle: saline) was 245 % of control; the T/C (dose: 12.5 mg/kg/injection, schedule: Q04DX003 (ip), vehicle: saline) is 163 % of control; the T/C (dose: 16.5 mg/kg/injection, schedule: Q04DX003 (ip), vehicle: saline) was 187 % of control; the T/C (dose: 25.0 mg/kg/injection, schedule: Q04DX003 (ip), vehicle: saline) was 187 % of control and 213 % of control.

For the compound `CCN(CC)C(=O)c1ccncc1C(=O)c1ccncc1`, the T/C by setting is: (dose: 60.0 mg/kg/injection, schedule: Q01DX005 (ip), vehicle: saline) 94 % of control; (dose: 120.0 mg/kg/injection, schedule: Q01DX005 (ip), vehicle: saline) 100 % of control; (dose: 240.0 mg/kg/injection, schedule: Q01DX005 (ip), vehicle: saline) 100 % of control.

`CC(C)c1oc(=O)cc2c1C(O)C1OC(=O)C3(C)C(O)C4OC4C2(C)C13` (stereo unspecified): the T/C by setting is: (dose: 15.0 mg/kg/injection, schedule: Q01DX005 (ip), vehicle: Klucel (hydroxypropylcellulose) (HPC)) 103 % of control and 105 % of control; (dose: 30.0 mg/kg/injection, schedule: Q01DX005 (ip), vehicle: Klucel (hydroxypropylcellulose) (HPC)) 103 % of control and 107 % of control; (dose: 60.0 mg/kg/injection, schedule: Q01DX005 (ip), vehicle: Klucel (hydroxypropylcellulose) (HPC)) 120 % of control; (dose: 120.0 mg/kg/injection, schedule: Q01DX005 (ip), vehicle: Klucel (hydroxypropylcellulose) (HPC)) 111 % of control.

As to `Cc1ccc(C(SCC(N)C(=O)O)(c2ccccc2)c2ccc(C)cc2)cc1` (stereo unspecified), the T/C runs as follows: (dose: 50.0 mg/kg/injection, schedule: Q04DX003 (ip), vehicle: saline with Tween-80) 186 % of control; (dose: 100.0 mg/kg/injection, schedule: Q04DX003 (ip), vehicle: saline with Tween-80) 200 % of control; (dose: 132.0 mg/kg/injection, schedule: Q04DX003 (ip), vehicle: saline with Tween-80) 172 % of control; (dose: 200.0 mg/kg/injection, schedule: Q04DX003 (ip), vehicle: saline with Tween-80) 177 % of control and 200 % of control; (dose: 300.0 mg/kg/injection, schedule: Q04DX003 (ip), vehicle: saline with Tween-80) 263 % of control.

In the case of `CCOC(=O)C1=C(C)N(Cc2ccccc2)C2(O)C1=CC(=O)C(Cl)=C2Cl` (stereo unspecified), the T/C was 99 % of control (dose: 50.0 mg/kg/injection, schedule: Q01DX009 (ip), vehicle: saline); 105 % of control (dose: 100.0 mg/kg/injection, schedule: Q01DX009 (ip), vehicle: saline); 108 % of control (dose: 200.0 mg/kg/injection, schedule: Q01DX009 (ip), vehicle: saline).

Regarding `O=C1OC2C(O1)C1(c3ccccc3)C(=O)C2(c2ccccc2)C(c2ccccc2)=C1c1ccccc1` (stereo unspecified), the T/C is, setting by setting: (dose: 6.25 mg/kg/injection, schedule: Q01DX009 (ip), vehicle: saline with Tween-80) 107 % of control and 96 % of control; under setting [1], 106 % of control and 94 % of control; under setting [2], 101 % of control and 96 % of control; under setting [3], 98 % of control and 105 % of control; under setting [4], 89 % of control.

As to `O=C(NC(Cc1cccc(F)c1)C(=O)O)c1ccccc1` (stereo unspecified), the T/C is 95 % of control (dose: 6.25 mg/kg/injection, schedule: Q01DX009 (ip), vehicle: other) and 96 % of control (dose: 12.5 mg/kg/injection, schedule: Q01DX009 (ip), vehicle: other).

With `CCCCOc1ncnc2nc[nH]c12`, the T/C by setting is: under setting [5], 103 % of control; under setting [6], 103 % of control.

As for `NC(CCC(=O)NCCCC(=O)O)C(=O)O` (stereo unspecified), the T/C was 105 % of control (dose: 100.0 mg/kg/injection, schedule: Q04DX002 (ip), vehicle: saline); 113 % of control (dose: 200.0 mg/kg/injection, schedule: Q04DX002 (ip), vehicle: saline); 108 % of control (dose: 400.0 mg/kg/injection, schedule: Q04DX002 (ip), vehicle: saline).

On to `O=c1cnc(=O)[nH][nH]1`, for which the T/C under setting [7] is 103 % of control, the T/C under setting [8] was 91 % of control and the T/C under setting [9] was 93 % of control.

Consider `[Cl][Sn]([CH2]C[CH2][Sn]([Cl])([c]1ccccc1)[c]1ccccc1)([c]1ccccc1)[c]1ccccc1`, for which the T/C is 99 % of control (dose: 3.12 mg/kg/injection, schedule: Q01DX005 (ip), vehicle: Klucel (hydroxypropylcellulose) (HPC)); 99 % of control (dose: 6.25 mg/kg/injection, schedule: Q01DX005 (ip), vehicle: Klucel (hydroxypropylcellulose) (HPC)); 98 % of control (dose: 12.5 mg/kg/injection, schedule: Q01DX005 (ip), vehicle: Klucel (hydroxypropylcellulose) (HPC)).

With `CCOC(=O)c1c(C)[nH]c(-c2ccccc2)c1NS(=O)(=O)c1ccc(NC(C)=O)cc1`, the T/C reads like this: under setting [7], 106 % of control; under setting [8], 93 % of control; under setting [9], 99 % of control.

As for `COc1ccccc1N=C(C1=C(O)c2ccccc2C1=O)c1ccccc1`, the T/C is 100 % of control (dose: 100.0 mg/kg/injection, schedule: Q04DX002 (ip), vehicle: saline with Tween-80); 102 % of control (dose: 200.0 mg/kg/injection, schedule: Q04DX002 (ip), vehicle: saline with Tween-80); 94 % of control (dose: 400.0 mg/kg/injection, schedule: Q04DX002 (ip), vehicle: saline with Tween-80).

Take `COc1cc(Br)c(C(=O)Nc2ccccc2)cc1OC`: the T/C is 97 % of control (dose: 25.0 mg/kg/injection, schedule: Q01DX009 (ip), vehicle: other); 97 % of control (dose: 50.0 mg/kg/injection, schedule: Q01DX009 (ip), vehicle: other); 91 % of control (dose: 100.0 mg/kg/injection, schedule: Q01DX009 (ip), vehicle: other); 97 % of control (dose: 200.0 mg/kg/injection, schedule: Q01DX009 (ip), vehicle: other); 97 % of control (dose: 400.0 mg/kg/injection, schedule: Q01DX009 (ip), vehicle: other).

For the compound `CCCCCC(=O)O[C@H]1CC[C@@H]2[C@H]1[C@@H]1CCC=C1C2(C)C`, the T/C reads like this: (dose: 100.0 mg/kg/injection, schedule: Q01DX001 (ip), vehicle: Klucel (hydroxypropylcellulose) (HPC)) 97 % of control; (dose: 200.0 mg/kg/injection, schedule: Q01DX001 (ip), vehicle: Klucel (hydroxypropylcellulose) (HPC)) 99 % of control; (dose: 400.0 mg/kg/injection, schedule: Q01DX001 (ip), vehicle: Klucel (hydroxypropylcellulose) (HPC)) 100 % of control.

As to `CC(O)C1CCNCC1` (stereo unspecified), the T/C was 102 % of control (dose: 50.0 mg/kg/injection, schedule: Q01DX005 (ip), vehicle: saline) and 97 % of control (dose: 100.0 mg/kg/injection, schedule: Q01DX005 (ip), vehicle: saline).

As to `Cc1nn(-c2ccccc2)c2c1S(=O)(=O)c1ccccc1-2`, the T/C (dose: 50.0 mg/kg/injection, schedule: Q01DX005 (ip), vehicle: saline with Tween-80) was 91 % of control; the T/C (dose: 100.0 mg/kg/injection, schedule: Q01DX005 (ip), vehicle: saline with Tween-80) was 89 % of control; the T/C (dose: 200.0 mg/kg/injection, schedule: Q01DX005 (ip), vehicle: saline with Tween-80) is 88 % of control.

Take `CN(C=O)S(C)(=O)=O`: the T/C is, setting by setting: under setting [3], 100 % of control; under setting [4], 100 % of control; (dose: 200.0 mg/kg/injection, schedule: Q01DX009 (ip), vehicle: saline with Tween-80) 100 % of control.

With `Clc1ccc2c(c1)nc(-c1ccccn1)n2CCc1ccccn1`, the T/C is 99 % of control (dose: 25.0 mg/kg/injection, schedule: Q01DX005 (ip), vehicle: Klucel (hydroxypropylcellulose) (HPC)); 104 % of control under setting [5]; 101 % of control under setting [6]; 93 % of control (dose: 200.0 mg/kg/injection, schedule: Q01DX005 (ip), vehicle: Klucel (hydroxypropylcellulose) (HPC)).

On to `CC1CCC2C(C)C(=O)OC2C2(C)C(=O)C=CC12` (stereo unspecified), for which the T/C reads like this: under setting [1], 103 % of control; under setting [2], 113 % of control; under setting [3], 110 % of control.
